The values below come from US20110195997A1, “Dicarboxamide Derivatives” (priority 2006, published 2011).

The experiment has as its target T1, human factor Xa (Homo sapiens, UniProt P00742).
T1 construct: Factor Xa is a serine endopeptidase composed of two disulfide-linked subunits; purchased Enzyme Research Laboratories
The experiment can be described thus: chromogenic peptide substrate assay, inhibition of factor Xa. Format: biochemical. The conditions noted are these: human factor Xa 3 nM, chromogenic substrate S-2222, pH 7.8, room temperature; apparent Ki from IC50 by Cheng-Prusoff. The procedure:
Factor Xa activity was measured spectrophotometrically in microtiter plates in a final volume of 150 μl using the following conditions: Inhibition of human factor Xa (Enzyme Research Laboratories) was tested at an enzyme concentration of 3 nM using the chromogenic substrate S-2222 (Chromogenix AB, Mölndal, Sweden) at […]. The reaction kinetics of the enzyme and the substrate were linear with both time and the enzyme concentration. The inhibitors were dissolved in DMSO and tested at various concentrations up to 100 μM. The inhibitors were diluted using HNPT buffer consisting of HEPES 100 mM, NaCl 140 mM, PEG 6000 0.1% and Tween 80 0.02%, pH 7.8. […] The velocity of the reaction was determined by the autoreader from the slope of the linear regression fit to 7 time points (1 minute). The initial velocity for each inhibitor concentration was determined by the slope of at least 4 time points in the linear phase by a linear regression fit […]. Apparent dissociation constants Ki were calculated according to Cheng and Prusoff [Cheng, Y. C.; Prusoff, W. H. Relationship between the inhibition constant (Ki) and the concentration of the inhibitor that causes 50 percent inhibition (IC50) of an enzyme reaction. Biochem. Pharmacol. 1973, 22, 3099-3108.] based on the IC50 and the respective Km, determined previously (Ki=IC50/(1+S/Km)). […]

SMILES strings stand for the structures.

T1 sequence (P00742 235-488 limits assumed): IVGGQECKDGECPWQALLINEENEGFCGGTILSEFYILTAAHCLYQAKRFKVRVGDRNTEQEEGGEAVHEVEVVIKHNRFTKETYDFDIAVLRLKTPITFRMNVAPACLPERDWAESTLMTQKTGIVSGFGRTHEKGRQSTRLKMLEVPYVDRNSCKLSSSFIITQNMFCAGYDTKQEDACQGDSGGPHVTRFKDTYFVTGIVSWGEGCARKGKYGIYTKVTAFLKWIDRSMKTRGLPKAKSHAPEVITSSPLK
T1 sequence (P00742 41-179 partner limits assumed): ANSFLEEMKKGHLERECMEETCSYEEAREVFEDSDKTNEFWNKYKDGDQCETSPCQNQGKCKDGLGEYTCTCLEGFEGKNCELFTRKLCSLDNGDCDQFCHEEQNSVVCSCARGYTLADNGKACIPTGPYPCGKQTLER

Regarding `O=C(Nc1ccc(-n2ccccc2=O)cc1F)[C@H]1C[C@H]1C(=O)Nc1ccc(Cl)cn1` (single isomer, unassigned) [Example 1.4 (1S,2R) enantiomer], the Ki is 0.003 µM.
